In ChEMBL document CHEMBL1777702, “N⁴-[Alkyl-(hydroxyphosphono)phosphonate]-cytidine-new drugs covalently linking antimetabolites (5-FdU, araU or AZT) with bone-targeting bisphosphonates (alendronate or pamidronate)” (Bioorg Med Chem, 2011):

Tests used:
[1] = Binding affinity to 7 gram of hydroxyapatite at 246 mg after 24 hrs by UV-spectrophotometer analysis; type: physicochemical
[2] = Binding affinity to 5 gram of hydroxyapatite at 246 mg after 24 hrs by UV-spectrophotometer analysis; type: physicochemical
[3] = Binding affinity to 7 gram of hydroxyapatite at 246 mg followed by acidified with hydrochloric acid at pH 2 measured after 24 hrs by UV-spectrophotometer analysis; type: physicochemical; settings: pH 2, 24 h
[4] = Chemical stability of the compound in hydrochloric acid at pH 2; type: physicochemical; settings: buffer
HL-60(TB) = test: Growth inhibition of human HL-60(TB) cells assessed as cell growth at 10 uM after 48 hrs by SRB assay relative to control; type: functional; settings: HL-60, 48 h, read-out: Activity
EKVX = test: Growth inhibition of human EKVX cells assessed as cell growth at 10 uM after 48 hrs by SRB assay relative to control; type: functional; settings: read-out: Activity
HOP-62 = test: Growth inhibition of human HOP62 cells assessed as cell growth at 10 uM after 48 hrs by SRB assay relative to control; type: functional; settings: HOP-62, 48 h, read-out: Activity
NCI-H322M = test: Growth inhibition of human NCI-H322M cells assessed as cell growth at 10 uM after 48 hrs by SRB assay relative to control; type: functional; settings: read-out: Activity
SF-268 = test: Growth inhibition of human SF268 cells assessed as cell growth at 10 uM after 48 hrs by SRB assay relative to control; type: functional; settings: SF-268, 48 h, read-out: Activity
SF-539 = test: Growth inhibition of human SF539 cells assessed as cell growth at 10 uM after 48 hrs by SRB assay relative to control; type: functional; settings: SF-539, 48 h, read-out: Activity
SNB-75 = test: Growth inhibition of human SNB75 cells assessed as cell growth at 10 uM after 48 hrs by SRB assay relative to control; type: functional; settings: SNB-75, 48 h, read-out: Activity
Malme-3M = test: Growth inhibition of human MALME-3M cells assessed as cell growth at 10 uM after 48 hrs by SRB assay relative to control; type: functional; settings: read-out: Activity
MDA-MB-435 = test: Growth inhibition of human MDA-MB-435 cells assessed as cell growth at 10 uM after 48 hrs by SRB assay relative to control; type: functional; settings: MDA-MB-435, 48 h, read-out: Activity
OVCAR-3 = test: Growth inhibition of human OVCAR3 cells assessed as cell growth at 10 uM after 48 hrs by SRB assay relative to control; type: functional; settings: OVCAR-3, 48 h, read-out: Activity
CAKI-1 = test: Growth inhibition of human Caki1 cells assessed as cell growth at 10 uM after 48 hrs by SRB assay relative to control; type: functional; settings: CAKI-1, 48 h, read-out: Activity
[5] = Cytotoxicity against mouse LLC cells after 24 hrs by resazurin assay; type: functional, cell-based, Lewis lung carcinoma
[6] = Cytotoxicity against mouse LLC cells after 72 hrs by resazurin assay; type: functional, cell-based; settings: Lewis lung carcinoma
RAW264.7 [7] = test: Selectivity ratio of IC50 for mouse RAW264.7 cells to IC50 for mouse LLC cells
RAW264.7 [8] = system: RAW264.7
Description: Cytotoxicity against mouse RAW264.7 cells after 24 hrs by resazurin assay

RAW264.7 [9] = test: cells; settings: Mus musculus, RAW264.7, 72 h
Description: Cytotoxicity against mouse RAW264.7 cells after 72 hrs by resazurin assay

[10] = Mus musculus, Lewis lung carcinoma, 24 h, read-out: IC50

`O=c1nc(NCCCC(O)(P(=O)([O-])O)P(=O)([O-])O)c(F)cn1[C@H]1C[C@H](O)[C@@H](CO)O1.[Na+].[Na+]` gave an Activity [1] of 87%, an Activity [2] of 41% and an Activity [3] of 74%. For the same compound, the Stability [4] was “Stable”, the growth at 10 µM (HL-60(TB)) was 62% and the growth at 10 µM (EKVX) was 82%. For the same compound, the growth at 10 µM (HOP-62) was 93%, the growth at 10 µM (NCI-H322M) was 89% and the growth at 10 µM (SF-268) was 87%. For the same compound, the growth at 10 µM (SF-539) was 95%, the growth at 10 µM (SNB-75) was 87% and the growth at 10 µM (Malme-3M) was 89%. For the same compound, the growth at 10 µM (MDA-MB-435) was 87%, the growth at 10 µM (OVCAR-3) was 88% and the growth at 10 µM (CAKI-1) was 79%. The IC50 ([5]; lewis lung carcinoma) was “Not Active”, the IC50 [6] was 150 nM and the “Ratio IC50” value (RAW264.7 [7]) was 167. The IC50 (RAW264.7 [8]) was “Not Active” and the IC50 (RAW264.7 [9]) was 25000 nM.
Compound `NCCCC(O)(P(=O)(O)O)P(=O)(O)O` has an IC50 [5, 10] of 430 nM and an IC50 [6] of 2620 nM.
`O=c1[nH]c(=O)n([C@H]2C[C@H](O)[C@@H](CO)O2)cc1F` [FLOXURIDINE] gave an Activity [1] of 15%, an IC50 [5, 10] of 14200 nM and an IC50 [6] of 2000 nM. The IC50 (RAW264.7 [8]) was “Not Active” and the IC50 (RAW264.7 [9]) was 30000 nM.
